The values below come from ChEMBL document CHEMBL1201862, “PubChem BioAssay data set” (2004).

Structures can show the parent of a compound that is named as a salt.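 Test compounds were applied to cells in 96-well plates for 48 hours at 5 doses. At the GI50, growth is halved.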 The source made the active and inactive calls. No stated cut-off is given here; in the data, active = GI50 up to about 1.1 µM and inactive = higher.

Holding throughout (test): NCI tumour cell line growth inhibition, 48 h
The test system of test [1] is 786-0.
Test [2] has as its system A549.
In test [3] the test system is CAKI-1.
Test [4] deals with HCC 2998.
Test [5] relates to HCT-116.
For test [6], the system named is HCT-15.
The test system of test [7] is HOP-62.
Test [8] concerns HT-29.
In test [9] the test system is Hs-578T.
Test [10] deals with IGROV-1.
In test [11] the test system is M14.
The subject of test [12] is Malme-3M.
Test [13] deals with NCI-H460.
In test [14] the test system is OVCAR-4.
For test [15], the system named is OVCAR-5.
Test [16] concerns PC-3.
Test [17] deals with RPMI-8226.
Test [18] concerns SF-539.
In test [19] the test system is SNB-19.
In test [20] the test system is UACC-257.

`Nc1ncnn2c(C3OC(CO)C(O)C3O)ccc12` (stereo not given): the GI50 in test [1] was 0.0766 µM (active); in [2], 0.155 µM (active); in test [3], 0.235 µM (active); in [4], 0.426 µM (active); in test [5], 0.0216 µM (active); in test [6], 0.138 µM. The GI50 in [7] was 0.261 µM (active); in test [8], 0.148 µM (active); in test [9] it was 0.0875 µM (active); in test [10] it was 0.21 µM (active); in [11] it was 0.0832 µM (active); in [12], 0.0698 µM (active). For the same compound, the GI50 in test [13] was 0.097 µM (active); in [14] it was 0.0906 µM (active); in test [15], 0.338 µM (active); in test [16], 0.182 µM (active); in test [17] it was 0.147 µM (active); in [18] it was 0.106 µM (active). Further, the GI50 in test [19] was 0.421 µM (active); in test [20], 0.0703 µM (active).
`CCOC1C=CC(=O)C(CO)O1` (stereo not given): the GI50 in test [1] is 4.26 µM (inactive); in [2], 17.6 µM (inactive); in [3], 13.4 µM (inactive); in test [4], 17.4 µM (inactive); in test [5], 5.12 µM (inactive); in test [6], 10 µM. Further, the GI50 in test [7] is 13.2 µM (inactive); in test [8] it was 8.26 µM (inactive); in test [9] it was 23.3 µM (inactive); in test [10] it was 12.9 µM (inactive); in test [11] it was 15 µM (inactive); in test [12] it was 12.2 µM (inactive). The GI50 in test [13] was 14.5 µM (inactive); in test [14], 8.97 µM (inactive); in test [15], 18.1 µM (inactive); in [16], 13.8 µM (inactive); in test [17] it was 2.14 µM (inactive); in test [18], 9.02 µM (inactive). Moreover, the GI50 in test [19] was 19.7 µM (inactive); in test [20], 5.86 µM (inactive).
For the compound `FC(F)(F)c1ccccc1N1CCN(c2nc(-c3cccs3)nc3ccc(Br)cc23)CC1`, the GI50 is 38.2 µM (inactive) in test [1]; 33.8 µM (inactive) in test [2]; 21.6 µM (inactive) in test [3]; 4.58 µM (inactive) in test [4]; 33.2 µM (inactive) in [5]; 7.46 µM in [6]. The GI50 is 50.4 µM (inactive) in test [7]; 29.5 µM (inactive) in test [8]; 36.5 µM (inactive) in [9]; 11.6 µM (inactive) in [10]; 38.7 µM (inactive) in test [11]; 24 µM (inactive) in test [12]. In addition, the GI50 in test [13] is 27.7 µM (inactive); in test [14] it was 5.16 µM (inactive); in test [15] it was 27.6 µM (inactive); in [16] it was 11.7 µM (inactive); in test [17], 11.2 µM (inactive); in test [18], 97.3 µM (inactive). The figures for the GI50 in [19] and in [20] were 50.7 µM (inactive) and 37.6 µM (inactive), respectively.
On to `Cc1cccc2c1NC(=S)[C@@H]1CCCN1C2=O`, for which the GI50 in test [1] was > 100 µM (inactive); in test [2], > 100 µM (inactive); in [3] it was > 100 µM (inactive); in test [4], > 100 µM (inactive); in [5] it was > 100 µM (inactive); in [6], greater than 100 µM. Further, the GI50 in test [7], in test [8], in test [9], in [10], in [11] and in test [12] was > 100 µM (inactive) throughout. For the same compound, the GI50 in test [13], in test [14], in [15], in test [16], in test [17] and in test [18] was > 100 µM (inactive) each time. For the same compound, the GI50 in [19] and in test [20] was > 100 µM (inactive) throughout.
In the case of `CN(C)C(=S)/N=c1\ssc(=S)n1Cc1ccco1`, the GI50 was 3.72 µM (inactive) in [1]; 1.98 µM (inactive) in test [2]; 2.01 µM (inactive) in [3]; 4.61 µM (inactive) in test [4]; 1.53 µM (inactive) in [5]; 2.2 µM in test [6]. Further, the GI50 in test [7] was 2.56 µM (inactive); in test [8], 0.998 µM (active); in [9], 0.31 µM (active); in [10], 11.1 µM (inactive); in [11], 2.15 µM (inactive); in test [12], 3.79 µM (inactive). In addition, the GI50 in test [13] was 1.34 µM (inactive); in test [14], 13.6 µM (inactive); in [15] it was 32 µM (inactive); in test [16] it was 0.509 µM (active); in test [17], 1.48 µM (inactive); in test [18], 1.95 µM (inactive). In addition, the GI50 is 2.9 µM (inactive) in [19] and 3.44 µM (inactive) in test [20].
Take `CC1(C)C2CCC3CC(CCC#N)CCC3C21C#N` (stereo not given): the GI50 in test [1] is > 100 µM (inactive); in test [2], > 100 µM (inactive); in [3], > 100 µM (inactive); in test [4], > 100 µM (inactive); in test [5], > 100 µM (inactive); in [6], greater than 100 µM. Also, the GI50 in [7], in test [8], in [9], in [10], in [11] and in [12] was > 100 µM (inactive) throughout. Further, the GI50 in test [13], in test [14], in test [15], in test [16], in test [17] and in [18] was > 100 µM (inactive) throughout. In addition, the GI50 in test [19] and in [20] was > 100 µM (inactive) in each case.
In the case of `COc1cc(OC)c2c(=O)c(O)c(-c3ccc(OC)c(OC)c3)oc2c1`, the GI50 in test [1] is 6.87 µM (inactive); in [2] it was 5.85 µM (inactive); in test [3], 4.1 µM (inactive); in test [4], 4.26 µM (inactive); in [5], 4.94 µM (inactive); in [6], 3.08 µM. Also, the GI50 is 3.99 µM (inactive) in [7]; 28.2 µM (inactive) in test [8]; 17.3 µM (inactive) in [9]; 4.86 µM (inactive) in test [10]; 9.4 µM (inactive) in [11]; > 28.1 µM (inactive) in test [12]. The GI50 in test [13] was 3.94 µM (inactive); in test [14], 0.607 µM (active); in test [15], 10.3 µM (inactive); in [16] it was 3.92 µM (inactive); in [17] it was 4.72 µM (inactive); in [18], 16.1 µM (inactive). In addition, the values for the GI50 in test [19] and in [20] were 10.3 µM (inactive) and 5.25 µM (inactive), respectively.
As to `CN(C)CCOc1ccc(/C(=C(/CCCl)c2ccccc2)c2ccccc2)cc1` [TOREMIFENE CITRATE], the GI50 in test [1] was 17.8 µM (inactive); in test [2] it was 16.3 µM (inactive); in test [3] it was 15 µM (inactive); in test [4] it was 5.16 µM (inactive); in [5], 16.7 µM (inactive); in test [6], 14.7 µM. For the same compound, the GI50 in [7] is 15.5 µM (inactive); in [8] it was 5.81 µM (inactive); in test [9] it was 17.2 µM (inactive); in [10], 21.4 µM (inactive); in [11], 14.1 µM (inactive); in test [12], 17.9 µM (inactive). The GI50 was 15.7 µM (inactive) in test [13]; 17.3 µM (inactive) in [14]; 18.1 µM (inactive) in test [15]; 16.4 µM (inactive) in test [16]; 4.45 µM (inactive) in test [17]; 16.2 µM (inactive) in test [18]. Further, the results for the GI50 in [19] and in [20] were 15 µM (inactive) and 20.3 µM (inactive), respectively.
